Measured values: ChEMBL document CHEMBL5338753, “Stapled Peptides as Direct Inhibitors of Nrf2-sMAF Transcription Factors” (J Med Chem, 2023)
Activity calls are given as the source filed them. The rule behind the calls is not given here. Positions of bridges follow the written chain, without caps; N, C: chain ends. Non-standard residues stand in square brackets, D forms with d. Residues, ends and D or L forms follow the SMILES beside them. R5 = C=CCCC[C@@](C)(N)C(=O)O

Columns and labels:
[1] = test system: A549; test: Synergistic antiproliferative activity against human A549 cells assessed as combination index at 12.5 uM incubated for 72 hrs in presence of 12 uM cisplatin by Chou-Talalay method; assay type: functional
[2] = molecular target: NRF2-MAFG (Homo sapiens) (UniProt Q16236+O15525); test: Inhibition of human Nrf2/MafG heterodimerization expressed in Escherichia coli Rosetta (DE3) by Split-luciferase assay; settings: dose 1.56-100 µM
[3] = molecular target: T1, Nuclear factor erythroid 2-related factor 2 (Homo sapiens) (UniProt Q16236); test: Inhibition of human Nrf2 in HEK-293T cells expressing ARE-firefly luciferase and TK-Renilla luciferase at 50 to 100 uM incubated for 16 hrs by Dual-Luciferase reporter based luminometer analysis; assay type: cell-based; settings: dose 50-100 µM
T1 sequence (whole entry): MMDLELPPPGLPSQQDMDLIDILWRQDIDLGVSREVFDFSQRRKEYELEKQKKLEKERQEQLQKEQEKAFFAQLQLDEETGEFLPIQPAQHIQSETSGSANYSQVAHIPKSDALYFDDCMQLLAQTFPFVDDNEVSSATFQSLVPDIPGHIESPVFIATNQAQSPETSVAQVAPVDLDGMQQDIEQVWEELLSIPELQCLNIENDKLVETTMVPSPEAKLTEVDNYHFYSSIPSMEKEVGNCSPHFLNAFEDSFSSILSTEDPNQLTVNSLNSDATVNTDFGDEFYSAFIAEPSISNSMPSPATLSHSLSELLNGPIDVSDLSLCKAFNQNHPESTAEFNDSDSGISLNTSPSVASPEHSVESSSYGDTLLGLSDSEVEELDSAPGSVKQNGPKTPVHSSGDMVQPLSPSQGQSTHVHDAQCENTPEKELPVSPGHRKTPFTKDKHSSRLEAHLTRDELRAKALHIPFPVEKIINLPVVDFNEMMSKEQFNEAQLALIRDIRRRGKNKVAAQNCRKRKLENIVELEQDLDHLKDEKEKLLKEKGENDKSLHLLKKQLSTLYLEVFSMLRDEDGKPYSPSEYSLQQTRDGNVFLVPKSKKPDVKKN

[4] = test system: A549; test: Antiproliferative activity against human A549 cells assessed as cell death at 25 uM incubated for 72 hrs by MTT assay relative to control; assay type: functional
[5] = test system: A549; test: Synergistic antiproliferative activity against human A549 cells assessed as cell death at 1.563 uM incubated for 72 hrs in presence of 12 uM cisplatin by MTT assay (reference value: 66%); assay type: functional
[6] = test system: A549; test: Antiproliferative activity against human A549 cells assessed as cell death at 3.125 uM incubated for 72 hrs by MTT assay relative to control; assay type: functional
[7] = test system: A549; test: Synergistic antiproliferative activity against human A549 cells assessed as combination index at 6.25 uM incubated for 72 hrs in presence of 6 uM cisplatin by Chou-Talalay method; assay type: functional
[8] = Hemolytic activity against human red blood cells at 100 uM relative to control; assay type: toxicity, cell-based, Erythrocyte; settings: red blood cells (erythrocytes), read-out: Activity
[9] = test system: A549; test: Synergistic antiproliferative activity against human A549 cells assessed as cell death at 3.125 uM incubated for 72 hrs in presence of 12 uM cisplatin by MTT assay (reference value: 66%); assay type: functional
[10] = test system: A549; test: Synergistic antiproliferative activity against human A549 cells assessed as cell death at 6.25 uM incubated for 72 hrs in presence of 6 uM cisplatin by MTT assay (reference value: 46%); assay type: functional
[11] = species on record: Homo sapiens; test: Inhibition of human recombinant His-MBP-tagged Nrf2/recombinant His-tagged MafG heterodimer interaction with 5' FAM-labeled ARE at 0.2 uM preincubated for 5 mins with Nrf2 under shaking condition followed by MafG addition for 5 mins further incubated with ARE and measured after 10 mins by fluorescence polarization assay; settings: time 20.0 min
[12] = test system: A549; test: Synergistic antiproliferative activity against human A549 cells assessed as combination index at 100 uM incubated for 72 hrs in presence of 6 uM cisplatin by Chou-Talalay method; assay type: functional
[13] = test system: A549; test: Synergistic antiproliferative activity against human A549 cells assessed as cell death at 100 uM incubated for 72 hrs in presence of 6 uM cisplatin by MTT assay (reference value: 46%); assay type: functional
[14] = test system: A549; test: Downregulation of TrxR1 protein expression in human A549 cells at 25 to 50 uM incubated for 72 hrs by Western blot analysis; assay type: functional, cell-based; settings: dose 25-50 µM
[15] = test system: A549; test: Downregulation of NQO2 mRNA level in human A549 cells at 50 uM incubated for 72 hrs by qPCR assay; assay type: functional, cell-based
[16] = test system: A549; test: Synergistic antiproliferative activity against human A549 cells assessed as cell death at 12.5 uM incubated for 72 hrs in presence of 12 uM cisplatin by MTT assay (reference value: 66%); assay type: functional
[17] = test system: A549; test: Synergistic antiproliferative activity against human A549 cells assessed as combination index at 25 uM incubated for 72 hrs in presence of 6 uM cisplatin by Chou-Talalay method; assay type: functional
[18] = test system: HEK-293T; test: Cytotoxicity against HEK-293T cells assessed as reduction in cell viability; assay type: toxicity, cell-based; settings: human
[19] = test system: A549; test: Antiproliferative activity against human A549 cells assessed as cell death at 6.25 uM incubated for 72 hrs by MTT assay relative to control; assay type: functional
[20] = test system: A549; test: Synergistic antiproliferative activity against human A549 cells assessed as reduction in cell growth at 50 uM incubated for 3 days in presence of 6 uM cisplatin and measured every 2 hrs by IncuCyte live-cell imaging assay; assay type: functional, cell-based; settings: time 3.0 day
[21] = test system: A549; test: Synergistic antiproliferative activity against human A549 cells assessed as cell death at 3.125 uM incubated for 72 hrs in presence of 6 uM cisplatin by MTT assay (reference value: 46%); assay type: functional
[22] = test system: A549; test: Synergistic antiproliferative activity against human A549 cells assessed as combination index at 50 uM incubated for 72 hrs in presence of 12 uM cisplatin by Chou-Talalay method; assay type: functional
[23] = test system: A549; test: Synergistic antiproliferative activity against human A549 cells assessed as combination index at 6.25 uM incubated for 72 hrs in presence of 12 uM cisplatin by Chou-Talalay method; assay type: functional
[24] = test system: A549; test: Synergistic antiproliferative activity against human A549 cells assessed as cell death at 25 uM incubated for 72 hrs in presence of 6 uM cisplatin by MTT assay (reference value: 46%); assay type: functional
[25] = test system: A549; test: Antiproliferative activity against human A549 cells assessed as cell death at 100 uM incubated for 72 hrs by MTT assay relative to control; assay type: functional
[26] = test system: A549; test: Downregulation of GCLC mRNA level in human A549 cells at 50 uM incubated for 72 hrs by qPCR assay; assay type: functional, cell-based
[27] = test system: A549; test: Synergistic antiproliferative activity against human A549 cells assessed as cell death at 6.25 uM incubated for 72 hrs in presence of 12 uM cisplatin by MTT assay (reference value: 66%); assay type: functional
[28] = test system: A549; test: Synergistic antiproliferative activity against human A549 cells assessed as combination index at 25 uM incubated for 72 hrs in presence of 12 uM cisplatin by Chou-Talalay method; assay type: functional
[29] = test system: A549; test: Synergistic antiproliferative activity against human A549 cells assessed as cell death at 25 uM incubated for 72 hrs in presence of 12 uM cisplatin by MTT assay (reference value: 66%); assay type: functional
[30] = test system: A549; test: Antiproliferative activity against human A549 cells assessed as cell death at 1.563 uM incubated for 72 hrs by MTT assay relative to control; assay type: functional

SMILES: CC[C@H](C)[C@H](NC(C)=O)C(=O)N[C@H](C(=O)N[C@@H](CCC(=O)O)C(=O)N[C@@H](CC(C)C)C(=O)N[C@@H](CCC(=O)O)C(=O)N[C@]1(C)CCC/C=C\CCC[C@](C)(C(=O)N[C@@H](CC(C)C)C(=O)N[C@@H](CCCCN)C(=O)N[C@@H](CC(=O)O)C(=O)N[C@@H](CCC(=O)O)C(=O)N[C@@H](CCCCN)C(=O)N[C@@H](CCC(=O)O)C(N)=O)NC(=O)[C@H](CC(=O)O)NC(=O)[C@H](CC(C)C)NC(=O)[C@H](CC(=O)O)NC1=O)C(C)C (Ac-IVELE[R5]DLD[R5]LKDEKE-NH2; staple (Z) 6-10)
- CI [1]: 0.51
- inhibition [2]: Dose-Dependent Effect
- inhibition [3]: Active
- Activity [4]: 30%
- Activity [5]: 67%
- Activity [6]: 12%
- CI [7]: 0.67
- hemolysis at 100 µM [8]: 0.3%
- Activity [9]: 71%
- Activity [10]: 59%
- inhibition [11]: Active
- CI [12]: 0.42
- Activity [13]: 76%
- Activity [14]: Active
- Activity [15]: Active
- Activity [16]: 81%
- CI [17]: 0.51
- Activity [18]: Non-Toxic
- Activity [19]: 17%
- Activity [20]: Active
- Activity [21]: 52%
- CI [22]: 0.19
- CI [23]: 0.57
- Activity [24]: 68%
- Activity [25]: 37%
- Activity [26]: Active
- Activity [27]: 79%
- CI [28]: 0.35
- Activity [29]: 87%
- Activity [30]: 4%
